Measured values published in ChEMBL document CHEMBL2384934, “Discovery of 3-phenyl-1H-5-pyrazolylamine derivatives containing a urea pharmacophore as potent and efficacious inhibitors of FMS-like tyrosine kinase-3 (FLT3)” (Bioorg Med Chem, 2013).

Columns and labels:
[1] = target: Receptor tyrosine-protein kinase erbB-2 (Homo sapiens) (UniProt P04626); experiment: Inhibition of ERBB2 (unknown origin) at 1 uM
[2] = target: Dual specificity mitogen-activated protein kinase kinase 1 (Homo sapiens) (UniProt Q02750); experiment: Inhibition of MAP2K1 (unknown origin) at 1 uM
Dual specificity mitogen-activated protein kinase kinase 1 (Homo sapiens), sequence (Q02750 whole entry): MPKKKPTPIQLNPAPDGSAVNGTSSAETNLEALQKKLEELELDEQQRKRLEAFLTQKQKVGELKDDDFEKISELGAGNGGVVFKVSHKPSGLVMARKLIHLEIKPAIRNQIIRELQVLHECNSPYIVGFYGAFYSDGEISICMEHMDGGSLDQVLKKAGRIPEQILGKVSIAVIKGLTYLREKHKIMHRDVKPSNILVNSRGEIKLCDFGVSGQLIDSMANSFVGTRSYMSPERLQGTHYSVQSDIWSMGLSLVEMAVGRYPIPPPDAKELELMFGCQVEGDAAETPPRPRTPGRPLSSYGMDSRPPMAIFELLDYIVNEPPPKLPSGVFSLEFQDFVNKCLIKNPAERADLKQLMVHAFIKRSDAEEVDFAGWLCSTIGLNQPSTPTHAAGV

[3] = Volume of distribution at steady state in Sprague-Dawley rat at 2 mg/kg, iv; format: ADME, organism-based; set-up: dose 2 mg/kg, route intravenous; conditions: in vivo, read-out: Vdss

Receptor tyrosine-protein kinase erbB-2 (Homo sapiens), sequence (P04626 whole entry): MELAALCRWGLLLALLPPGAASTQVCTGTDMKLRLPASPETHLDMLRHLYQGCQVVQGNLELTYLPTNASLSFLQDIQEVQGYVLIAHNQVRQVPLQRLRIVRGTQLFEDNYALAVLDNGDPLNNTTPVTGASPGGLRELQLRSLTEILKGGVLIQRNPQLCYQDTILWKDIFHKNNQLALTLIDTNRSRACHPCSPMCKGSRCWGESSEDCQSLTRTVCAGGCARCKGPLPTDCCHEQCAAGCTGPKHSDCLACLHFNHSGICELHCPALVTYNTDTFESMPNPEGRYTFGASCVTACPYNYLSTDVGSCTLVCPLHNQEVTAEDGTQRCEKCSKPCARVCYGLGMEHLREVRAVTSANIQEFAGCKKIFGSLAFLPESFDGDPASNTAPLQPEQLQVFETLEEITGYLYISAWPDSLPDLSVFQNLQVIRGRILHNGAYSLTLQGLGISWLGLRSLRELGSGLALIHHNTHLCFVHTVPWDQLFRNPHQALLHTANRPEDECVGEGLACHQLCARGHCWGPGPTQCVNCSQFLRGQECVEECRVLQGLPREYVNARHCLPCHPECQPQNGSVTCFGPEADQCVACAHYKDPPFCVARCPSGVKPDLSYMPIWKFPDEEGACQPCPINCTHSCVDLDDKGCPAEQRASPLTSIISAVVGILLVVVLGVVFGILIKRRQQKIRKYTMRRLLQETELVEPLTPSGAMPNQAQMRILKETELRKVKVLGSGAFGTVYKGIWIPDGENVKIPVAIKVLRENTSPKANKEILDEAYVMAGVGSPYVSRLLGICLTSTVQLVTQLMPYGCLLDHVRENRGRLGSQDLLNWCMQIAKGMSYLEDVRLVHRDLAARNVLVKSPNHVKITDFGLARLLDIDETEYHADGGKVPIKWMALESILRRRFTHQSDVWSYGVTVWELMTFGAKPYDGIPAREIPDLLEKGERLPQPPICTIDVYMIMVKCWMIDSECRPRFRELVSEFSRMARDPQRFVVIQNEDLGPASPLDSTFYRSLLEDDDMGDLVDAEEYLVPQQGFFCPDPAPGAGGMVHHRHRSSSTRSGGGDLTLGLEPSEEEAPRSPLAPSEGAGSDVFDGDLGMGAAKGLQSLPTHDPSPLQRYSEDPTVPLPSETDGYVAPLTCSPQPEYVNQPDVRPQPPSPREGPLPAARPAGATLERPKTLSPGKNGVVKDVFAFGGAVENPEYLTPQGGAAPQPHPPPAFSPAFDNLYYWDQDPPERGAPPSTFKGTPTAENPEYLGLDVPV

CC(C)(C)c1cc(NC(=O)NCc2ccc(-c3cc(NC(=O)c4ccc(OCCN5CCOCC5)cc4)[nH]n3)cc2)no1
inhibition [1]: -1%
inhibition [2]: 13%
Vd [3]: 3.6 L/kg
